Experimental data: ChEMBL document CHEMBL3860091, “Synthesis and activity of newly designed aroxyalkyl or aroxyethoxyethyl derivatives of piperazine on the cardiovascular and the central nervous systems” (Bioorg Med Chem Lett, 2016)

Legend:
[1] = target: T1, Adrenergic receptor alpha-1 (Rattus norvegicus, UniProt P15823+P23944+P43140); experiment: Displacement of [3H]prazosin from alpha1 adrenergic receptor in rat brain cerebral cortex after 30 mins by microbeta scintillation counting method; assay type: tissue-based
T1 sequence (P15823 whole entry): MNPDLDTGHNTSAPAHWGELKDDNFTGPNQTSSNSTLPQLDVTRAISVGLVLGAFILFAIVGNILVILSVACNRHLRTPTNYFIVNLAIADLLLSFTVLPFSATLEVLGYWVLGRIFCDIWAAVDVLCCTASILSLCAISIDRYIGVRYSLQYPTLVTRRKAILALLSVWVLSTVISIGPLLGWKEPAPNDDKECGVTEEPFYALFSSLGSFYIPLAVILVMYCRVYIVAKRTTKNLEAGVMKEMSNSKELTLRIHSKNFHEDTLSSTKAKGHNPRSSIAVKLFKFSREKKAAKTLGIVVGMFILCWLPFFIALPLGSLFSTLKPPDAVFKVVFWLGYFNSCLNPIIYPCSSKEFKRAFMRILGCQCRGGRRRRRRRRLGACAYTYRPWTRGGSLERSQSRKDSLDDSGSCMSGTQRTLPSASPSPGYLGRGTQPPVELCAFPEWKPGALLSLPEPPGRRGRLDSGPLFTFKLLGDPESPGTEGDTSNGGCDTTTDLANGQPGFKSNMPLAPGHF
T1 sequence (P23944 whole entry): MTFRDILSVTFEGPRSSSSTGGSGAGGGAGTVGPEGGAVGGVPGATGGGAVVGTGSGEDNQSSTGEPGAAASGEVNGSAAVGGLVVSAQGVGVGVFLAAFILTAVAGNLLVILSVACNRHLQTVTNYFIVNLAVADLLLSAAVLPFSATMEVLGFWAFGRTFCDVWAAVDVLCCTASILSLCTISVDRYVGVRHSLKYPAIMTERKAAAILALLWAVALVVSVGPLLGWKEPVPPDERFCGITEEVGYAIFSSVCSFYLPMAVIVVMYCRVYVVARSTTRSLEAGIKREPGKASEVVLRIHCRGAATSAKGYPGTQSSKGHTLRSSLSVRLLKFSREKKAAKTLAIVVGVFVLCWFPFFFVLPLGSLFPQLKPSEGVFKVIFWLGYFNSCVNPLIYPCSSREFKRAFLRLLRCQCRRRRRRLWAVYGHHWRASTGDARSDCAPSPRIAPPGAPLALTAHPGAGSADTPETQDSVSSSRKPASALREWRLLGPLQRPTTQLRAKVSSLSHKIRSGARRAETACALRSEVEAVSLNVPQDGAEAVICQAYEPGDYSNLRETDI
T1 sequence (P43140 whole entry): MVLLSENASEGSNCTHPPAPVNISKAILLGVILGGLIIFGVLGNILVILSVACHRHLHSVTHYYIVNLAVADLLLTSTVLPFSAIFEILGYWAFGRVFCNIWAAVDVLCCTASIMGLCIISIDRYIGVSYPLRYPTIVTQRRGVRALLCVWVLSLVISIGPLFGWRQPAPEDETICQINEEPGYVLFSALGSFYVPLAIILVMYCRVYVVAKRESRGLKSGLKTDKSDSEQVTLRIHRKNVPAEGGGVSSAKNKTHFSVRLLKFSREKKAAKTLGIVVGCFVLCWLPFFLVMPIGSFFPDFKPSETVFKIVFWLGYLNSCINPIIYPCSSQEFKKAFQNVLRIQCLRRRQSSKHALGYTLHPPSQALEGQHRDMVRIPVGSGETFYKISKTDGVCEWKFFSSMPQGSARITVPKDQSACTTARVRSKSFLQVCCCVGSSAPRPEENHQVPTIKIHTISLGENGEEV

[2] = species: Rattus norvegicus; experiment: Selectivity ratio of Ki for rat brain cerebral cortex alpha2 adrenergic receptor to Ki for rat brain cerebral cortex alpha1 adrenergic receptor
[3] = target: Adrenergic receptor alpha-1 (Rattus norvegicus) (UniProt P15823+P23944+P43140); experiment: Antagonist activity at alpha1 adrenergic receptor in Wistar rat aorta assessed as inhibition of naradrenaline-induced aortic contraction preincubated for 30 mins followed by naradrenaline stimulation for 3 hrs at 60 mins interval in presence of alpha2 adrenergic receptor blocker yohimbine and beta adrenergic receptor blocker propranolol
[4] = tested on: Rattus norvegicus; experiment: Hypotensive activity in normotensive anesthetized Wistar rat assessed as diastolic blood pressure at 1 mg/kg, iv measured 5 mins post dose (reference value: 81.6 to 115.2 mmHg); assay type: functional
[5] = tested on: Rattus norvegicus; experiment: Hypotensive activity in normotensive anesthetized Wistar rat assessed as systolic blood pressure at 1 mg/kg, iv measured 10 mins post dose (reference value: 107.4 to 148.3 mmHg); assay type: functional
[6] = tested on: Rattus norvegicus; experiment: Hypotensive activity in normotensive anesthetized Wistar rat assessed as diastolic blood pressure at 1 mg/kg, iv measured 10 mins post dose (reference value: 81.6 to 115.2 mmHg); assay type: functional
[7] = tested on: Rattus norvegicus; experiment: Hypotensive activity in normotensive anesthetized Wistar rat assessed as systolic blood pressure at 1 mg/kg, iv measured 20 mins post dose (reference value: 107.4 to 148.3 mmHg); assay type: functional
[8] = tested on: Rattus norvegicus; experiment: Hypotensive activity in normotensive anesthetized Wistar rat assessed as diastolic blood pressure at 1 mg/kg, iv measured 20 mins post dose (reference value: 81.6 to 115.2 mmHg); assay type: functional
[9] = tested on: Rattus norvegicus; experiment: Hypotensive activity in normotensive anesthetized Wistar rat assessed as systolic blood pressure at 1 mg/kg, iv measured 30 mins post dose (reference value: 107.4 to 148.3 mmHg); assay type: functional
[10] = tested on: Rattus norvegicus; experiment: Hypotensive activity in normotensive anesthetized Wistar rat assessed as diastolic blood pressure at 1 mg/kg, iv measured 30 mins post dose (reference value: 81.6 to 115.2 mmHg); assay type: functional
[11] = tested on: Rattus norvegicus; experiment: Hypotensive activity in normotensive anesthetized Wistar rat assessed as systolic blood pressure at 1 mg/kg, iv measured 60 mins post dose (reference value: 107.4 to 148.3 mmHg); assay type: functional
[12] = tested on: Rattus norvegicus; experiment: Hypotensive activity in normotensive anesthetized Wistar rat assessed as diastolic blood pressure at 1 mg/kg, iv measured 60 mins post dose (reference value: 81.6 to 115.2 mmHg); assay type: functional

Cc1cccc(OCCN2CCN(c3ccccc3)CC2)c1C.Cl.Cl
Ki [1]: 159 nM | Ratio Ki [2]: 1.82 | inhibition [3]: Dose-dependent effect | pKb [3]: 8.75 | Activity [4]: 75.2 mmHg | Activity [5]: 97.2 mmHg | Activity [6]: 75 mmHg | Activity [7]: 96 mmHg | Activity [8]: 71.8 mmHg | Activity [9]: 93 mmHg | Activity [10]: 67.6 mmHg | Activity [11]: 93.4 mmHg | Activity [12]: 67.6 mmHg

Cc1cccc(OCCCN2CCN(c3ccccc3)CC2)c1C.Cl.Cl
Ki [1]: 33 nM | Ratio Ki [2]: 24.6 | inhibition [3]: Dose-dependent effect | pKb [3]: 7.97 | Activity [4]: 111.8 mmHg | Activity [5]: 138 mmHg | Activity [6]: 112.8 mmHg | Activity [7]: 138 mmHg | Activity [8]: 110.8 mmHg | Activity [9]: 135.8 mmHg | Activity [10]: 109 mmHg | Activity [11]: 133.3 mmHg | Activity [12]: 109.7 mmHg

Cc1cccc(Cl)c1OCCCCN1CCN(c2ccccc2)CC1.Cl.Cl
Ki [1]: 59.6 nM | Ratio Ki [2]: 8.48 | inhibition [3]: Dose-dependent effect | pKb [3]: 8.37 | Activity [4]: 103.7 mmHg | Activity [5]: 127.7 mmHg | Activity [6]: 102.2 mmHg | Activity [7]: 126.2 mmHg | Activity [8]: 98.8 mmHg | Activity [9]: 123.5 mmHg | Activity [10]: 97.7 mmHg | Activity [11]: 120 mmHg | Activity [12]: 95.2 mmHg

COc1ccccc1N1CCN(CCOCCOc2cccc(C)c2C)CC1.Cl.Cl
Ki [1]: 28.5 nM | Ratio Ki [2]: 31.3 | inhibition [3]: Dose-dependent effect | pKb [3]: 8.76 | Activity [4]: 105 mmHg | Activity [5]: 131 mmHg | Activity [6]: 106 mmHg | Activity [7]: 130.4 mmHg | Activity [8]: 105.4 mmHg | Activity [9]: 131 mmHg | Activity [10]: 105.6 mmHg | Activity [11]: 132.6 mmHg | Activity [12]: 104 mmHg

COc1ccccc1N1CCN(CCCCOc2c(C)cccc2C)CC1.Cl
Ki [1]: 23.5 nM | Ratio Ki [2]: 15.8 | inhibition [3]: Dose-dependent effect | pKb [3]: 8.54 | Activity [4]: 109.8 mmHg | Activity [5]: 126.2 mmHg | Activity [6]: 105.2 mmHg | Activity [7]: 124.3 mmHg | Activity [8]: 103 mmHg | Activity [9]: 125.5 mmHg | Activity [10]: 102 mmHg | Activity [11]: 124.7 mmHg | Activity [12]: 103.8 mmHg
